What was measured:
Format in all cases: cell-based
E. coli J53 Alone = assay: MIC determination, isogenic E. coli strains; settings: for Mimimum Inhibitory Concentrations, J53 Alone: CAMH broth, 20 μM Apo-Transferrin, 37° C., 18 hours; for MIC: Escherichia coli, J53ALONE, 18 h, read-out: Mimimum Inhibitory Concentrations, J53 Alone
How it was run: (§1)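 Broth microdilution in cation-adjusted Mueller-Hinton broth with 20 μM apo-transferrin, 2-fold compound series from 64 μg/mL. E. coli J53, alone or transformed with a pBC-SK(+) plasmid carrying the beta-lactamase gene (e.g. DHA-1), inoculated from 0.5 McFarland suspension; 18 h at 37° C; MIC = lowest concentration with clear well.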

[1] = tested on: Isogenic E. coli J58 strain carrying DHA-1; assay: MIC determination, isogenic E. coli strains; settings: for MIC: Escherichia coli, 18 h, read-out: Mimimum Inhibitory Concentrations, DHA-1
How it was run: as §1

[2] = tested on: Isogenic E. coli J58 strain carrying TEM-26; assay: MIC determination, isogenic E. coli strains; settings: for MIC: Escherichia coli, 18 h, read-out: Mimimum Inhibitory Concentrations, TEM-26
How it was run: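 Broth microdilution in cation-adjusted Mueller-Hinton broth with 20 μM apo-transferrin, compound […] in twofold steps, inoculum from 0.5 McFarland suspension. E. coli J53 transformed with pBC-SK(+) encoding TEM-26; 18 h at 37° C, MIC as lowest concentration giving a clear well.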

[3] = tested on: Pseudomonas aeruginosa PA (RR-1); assay: MIC determination; settings: PA (RR-1), CAMH broth, 20 μM Apo-Transferrin, 37° C., 18 hours; for MIC: Pseudomonas aeruginosa, read-out: Minimum Inhibitory Concentrations, PA (RR-1)
How it was run: (§2)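 Using an iron-depleting medium (CAMH plus 20 μM apo-transferrin), organisms at 0.5 McFarland faced compound from 64 μg/mL downward in twofold steps. Readout: visual, after 18 h at 37 °C.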

[4] = tested on: Pseudomonas aeruginosa PA-RR-(G8062859); assay: MIC determination; settings: PA-RR-(G8062859), CAMH broth, 20 μM Apo-Transferrin, 37° C., 18 hours; for MIC: Pseudomonas aeruginosa, read-out: Minimum Inhibitory Concentrations, PA-RR-(G8062859)
How it was run: as §2

[5] = tested on: Pseudomonas aeruginosa PA-RR-(purple Fre D); assay: MIC determination; settings: CAMH broth, 20 μM Apo-Transferrin, 37° C., 18 hours; for MIC: Pseudomonas aeruginosa, read-out: Minimum Inhibitory Concentrations, PA-RR-(purple Fre D)
How it was run: as §2

[6] = tested on: Pseudomonas aeruginosa PA (RR-2); assay: MIC determination; settings: PA (RR-2), CAMH broth, 20 μM Apo-Transferrin, 37° C., 18 hours; for MIC: Pseudomonas aeruginosa, read-out: Minimum Inhibitory Concentrations, PA (RR-2)
How it was run: as §2

[7] = tested on: Pseudomonas aeruginosa PA-RR-(980151052); assay: MIC determination; settings: PA-RR-(980151052), CAMH broth, 20 μM Apo-Transferrin, 37° C., 18 hours; for MIC: Pseudomonas aeruginosa, read-out: Minimum Inhibitory Concentrations, PA-RR-(980151052)
How it was run: as §2

[8] = tested on: Pseudomonas aeruginosa PA-RR-(G7305586); assay: MIC determination; settings: PA-RR-(G7305586), CAMH broth, 20 μM Apo-Transferrin, 37° C., 18 hours; for MIC: Pseudomonas aeruginosa, read-out: Minimum Inhibitory Concentrations, PA-RR-(G7305586)
How it was run: as §2

[9] = tested on: Isogenic E. coli J58 strain carrying IMP-1; assay: MIC determination, isogenic E. coli strains; settings: for MIC: Escherichia coli, 18 h, read-out: Mimimum Inhibitory Concentrations, IMP-1
How it was run: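 Broth microdilution in cation-adjusted Mueller-Hinton broth with 20 μM apo-transferrin, compound serially diluted two-fold from 64 μg/mL, against E. coli J53 carrying plasmid-borne IMP-1. Inoculum adjusted to 0.5 McFarland; plates incubated 18 h at 37° C. MIC taken as lowest concentration giving a clear well.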

[10] = tested on: Isogenic E. coli J58 strain carrying VIM-2; assay: MIC determination, isogenic E. coli strains; settings: for MIC: Escherichia coli, 18 h, read-out: Mimimum Inhibitory Concentrations, VIM-2
How it was run: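 E. coli J53 transformed with pBC-SK(+) plasmid carrying synthesized VIM-2 gene, grown in LB to OD600 >0.1, adjusted to 0.08–0.1 OD600 in CAMH broth.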

[11] = tested on: Isogenic E. coli J58 strain carrying NDM-1; assay: MIC determination, isogenic E. coli strains; settings: for MIC: Escherichia coli, 18 h, read-out: Mimimum Inhibitory Concentrations, NDM-1
How it was run: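 E. coli J53 transformed with a pBC-SK(+) plasmid encoding NDM-1 was adjusted to 0.08-0.1 OD600. It was grown 18 h at 37° C in CAMH broth containing 20 μM apo-transferrin with twofold compound dilutions from 64 μg/mL. MIC was taken as the lowest concentration giving a transparent well.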

[12] = tested on: Isogenic E. coli J58 strain carrying CTX-M-14; assay: MIC determination, isogenic E. coli strains; settings: for MIC: Escherichia coli, 18 h, read-out: Mimimum Inhibitory Concentrations, CTX-M-14
How it was run: (§3)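 Isogenic E. coli J53 carrying plasmid-encoded CTX-M-14 or CTX-M-15 (ampicillin-selected), standardized to 0.08-0.1 OD600, incubated overnight (18 h, 37° C.) in CAMH broth plus 20 μM apo-transferrin over 2-fold compound dilutions starting at 64 μg/mL. Lowest concentration with no visible growth recorded as MIC.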

[13] = tested on: Isogenic E. coli J58 strain carrying CTX-M-15; assay: MIC determination, isogenic E. coli strains; settings: for MIC: Escherichia coli, 18 h, read-out: Mimimum Inhibitory Concentrations, CTX-M-15
How it was run: as §3

[14] = tested on: Isogenic E. coli J58 strain carrying KPC-2; assay: MIC determination, isogenic E. coli strains; settings: for MIC: Escherichia coli, 18 h, read-out: Mimimum Inhibitory Concentrations, KPC-2
How it was run: (§4)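 Broth microdilution in cation-adjusted Mueller-Hinton broth with 20 μM apo-transferrin, compound at 64 down to […], inoculum set to 0.5 McFarland. E. coli J53 transformed with pBC-SK(+) carrying the synthetic beta-lactamase gene was used. Plates were incubated 18 h at 37 °C; MIC is the lowest concentration giving a clear well.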

[15] = tested on: Isogenic E. coli J58 strain carrying KPC-3; assay: MIC determination, isogenic E. coli strains; settings: for MIC: Escherichia coli, 18 h, read-out: Mimimum Inhibitory Concentrations, KPC-3
How it was run: as §4

[16] = tested on: Isogenic E. coli J58 strain carrying SHV-1; assay: MIC determination, isogenic E. coli strains; settings: for MIC: Escherichia coli, 18 h, read-out: Mimimum Inhibitory Concentrations, SHV-1
How it was run: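 MIC is the lowest compound concentration leaving a transparent well after overnight (18 h) incubation at 37 °C. The test strain was E. coli J53 expressing plasmid-borne SHV-1 beta-lactamase from pBC-SK(+), adjusted to 0.5 McFarland. Compounds were twofold serially diluted, starting at 64 μg/mL, in CAMH broth supplemented with 20 μM apo-transferrin.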

Row | SMILES | Mimimum Inhibitory Concentrations, J53 Alone (E. coli J53 Alone; Table 4-2) [microgram/mL] | MIC (E. coli J53 Alone) [µg/mL] | MIC [1] [µg/mL] | MIC [2] [µg/mL] | MIC [3] [µg/mL] | MIC [4] [µg/mL] | MIC [5] [µg/mL] | MIC [6] [µg/mL] | MIC [7] [µg/mL] | MIC [8] [µg/mL] | MIC [9] [µg/mL] | MIC [10] [µg/mL] | MIC [11] [µg/mL] | MIC [12] [µg/mL] | MIC [13] [µg/mL] | MIC [14] [µg/mL] | MIC [15] [µg/mL] | MIC [16] [µg/mL] | other results
1 | CC(C)(O/N=C(\C(=O)N[C@@H]1C(=O)N2C(C(=O)O)=C(C=Cc3ccc(C[n+]4ccc5cc(O)c(O)cc5c4)cc3)CS[C@H]12)c1csc(N)n1)C(=O)O (mixture of isomers) [Compound 435, 2-(4-((E/Z)-2-((6R,7R)-7-((Z)-2-(2-aminothiazol-4-yl)-2-(((2-carboxypropan-2-yl)oxy)imino)acetamido)-2-carboxy-8-oxo-5-thia-1-azabicyclo[4.2.0]oct-2-en-3-yl)vinyl)benzyl)-6,7-dihydroxyisoquinolin-2-ium] | ≤0.06 |  |  |  |  |  |  |  |  |  |  |  |  |  |  |  |  |  | Mimimum Inhibitory Concentrations, J53 Alone (E. coli J53 Alone; Table 4-1): ≤0.06 microgram/mL; Mimimum Inhibitory Concentrations, DHA-1 ([1]; isogenic E. coli strain, DHA-1, CAMH broth, 20 μM Apo-Transferrin, 37° C., 18 hours): ≤0.06 microgram/mL; Mimimum Inhibitory Concentrations, TEM-26 ([2]; isogenic E. coli strain, TEM-26, CAMH broth, 20 μM Apo-Transferrin, 37° C., 18 hours): ≤0.06 microgram/mL; Minimum Inhibitory Concentrations, PA (RR-1) [3]: 0.25 microgram/mL; Minimum Inhibitory Concentrations, PA-RR-(G8062859) [4]: 0.5 microgram/mL; Minimum Inhibitory Concentrations, PA-RR-(purple Fre D) [5]: 0.5 microgram/mL; Minimum Inhibitory Concentrations, PA (RR-2) [6]: ≤0.06 microgram/mL; Minimum Inhibitory Concentrations, PA-RR-(980151052) [7]: 0.13 microgram/mL; Minimum Inhibitory Concentrations, PA-RR-(G7305586) [8]: 0.25 microgram/mL; Mimimum Inhibitory Concentrations, IMP-1 ([9]; isogenic E. coli strain, IMP-1, CAMH broth, 20 μM Apo-Transferrin, 37° C., 18 hours): 0.13 microgram/mL; MICs for an E. coli strain carrying the gene for carbapenemase IMP-1, in words ([9]; review of Tables 4-1 and 4-2): low microgram/mL MICs; Mimimum Inhibitory Concentrations, VIM-2 ([10]; isogenic E. coli strain, VIM-2, CAMH broth, 20 μM Apo-Transferrin, 37° C., 18 hours): ≤0.06 microgram/mL; MICs for an E. coli strain carrying the gene for carbapenemase VIM-1, in words ([10]; review of Tables 4-1 and 4-2): low microgram/mL MICs; Mimimum Inhibitory Concentrations, NDM-1 ([11]; isogenic E. coli strain, NDM-1, CAMH broth, 20 μM Apo-Transferrin, 37° C., 18 hours): 2 microgram/mL; MICs for an E. coli strain carrying the gene for NDM-1, in words ([11]; review of Tables 4-1 and 4-2): lower MICS compared to other compounds tested; Mimimum Inhibitory Concentrations, CTX-M-14 ([12]; isogenic E. coli strain, CTX-M-14, CAMH broth, 20 μM Apo-Transferrin, 37° C., 18 hours): ≤0.06 microgram/mL; Mimimum Inhibitory Concentrations, CTX-M-15 ([13]; isogenic E. coli strain, CTX-M-15, CAMH broth, 20 μM Apo-Transferrin, 37° C., 18 hours): ≤0.06 microgram/mL; Mimimum Inhibitory Concentrations, KPC-2 ([14]; isogenic E. coli strain, KPC-2, CAMH broth, 20 μM Apo-Transferrin, 37° C., 18 hours): 0.25 microgram/mL; Mimimum Inhibitory Concentrations, KPC-3 ([15]; isogenic E. coli strain, KPC-3, CAMH broth, 20 μM Apo-Transferrin, 37° C., 18 hours): 0.13 microgram/mL; Mimimum Inhibitory Concentrations, SHV-1 ([16]; isogenic E. coli strain, SHV-1, CAMH broth, 20 μM Apo-Transferrin, 37° C., 18 hours): 0.13 microgram/mL
2 | Cc1c[n+](Cc2ccc(C=CC3=C(C(=O)O)N4C(=O)[C@@H](NC(=O)/C(=N\OC(C)(C)C(=O)O)c5csc(N)n5)[C@H]4SC3)cc2)ccc1-c1ccc(O)c(O)c1 (mixture of isomers) [Compound 422, 1-(4-((E/Z)-2-((6R,7R)-7-((Z)-2-(2-aminothiazol-4-yl)-2-(((2-carboxypropan-2-yl)oxy)imino)acetamido)-2-carboxy-8-oxo-5-thia-1-azabicyclo[4.2.0]oct-2-en-3-yl)vinyl)benzyl)-4-(3,4-dihydroxyphenyl)-3-methylpyridin-1-ium] | 0.25 | 0.25 | 0.25 | 4 | 4 | 2 | 1 | 2 | 8 | 16 | > 64 | 1 | > 64 | 4 | 4 | 16 | 8 | 2 | 
3 | CC(C)(O/N=C(\C(=O)N[C@@H]1C(=O)N2C(C(=O)O)=C(C=Cc3ccc(C[n+]4cccc(-c5ccc(O)c(O)c5)c4)cc3)CS[C@H]12)c1csc(N)n1)C(=O)O (mixture of isomers) [Compound 413, 1-(4-((E/Z)-2-((6R,7R)-7-((Z)-2-(2-aminothiazol-4-yl)-2-(((2-carboxypropan-2-yl)oxy)imino)acetamido)-2-carboxy-8-oxo-5-thia-1-azabicyclo[4.2.0]oct-2-en-3 yl)vinyl)benzyl)-3-(3,4-dihydroxyphenyl)pyridin-1-ium] | 0.25 | 0.25 | 0.13 | 1 | 4 | 2 | 2 | 2 | 4 | 8 | 64 | 0.5 | > 64 | 2 | 2 | 8 | 4 | 2 | 
